Target: FXR (Homo sapiens (Human), UniProt Q96RI1)
Assay: FXR EC50 (FXR agonist activity reported with each example)
Format: cell-based

Chain of FXR (Q96RI1 262-486): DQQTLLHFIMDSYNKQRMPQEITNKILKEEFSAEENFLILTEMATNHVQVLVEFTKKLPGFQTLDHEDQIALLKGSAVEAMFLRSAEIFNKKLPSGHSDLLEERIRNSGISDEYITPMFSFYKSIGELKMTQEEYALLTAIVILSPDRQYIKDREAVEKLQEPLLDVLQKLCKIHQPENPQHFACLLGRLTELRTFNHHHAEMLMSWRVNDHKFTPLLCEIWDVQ

Compound | EC50 [nM]
O=C(O)c1cc(OC(F)F)c2cc(OCC34CCC(/C=C/c5c(-c6c(Cl)cncc6Cl)noc5C5CC5)(CC3)CC4)ccc2n1 [Example 451, (E)-6-((4-(2-(5-cyclopropyl-3-(3,5-dichloropyridin-4-yl)isoxazol-4-yl)vinyl)bicyclo[2.2.2]octan-1-yl)methoxy)-4-(difluoromethoxy)quinoline-2-carboxylic acid] | 35
COc1cncc(Cl)c1-c1noc(C2CC2)c1COC12CCC(COc3ccc(C)c(C(=O)O)n3)(CC1)CC2 [Example 120, 6-((4-((3-(3-chloro-5-methoxypyridin-4-yl)-5-cyclopropylisoxazol-4-yl)methoxy)bicyclo[2.2.2]octan-1-yl)methoxy)-3-methylpicolinic acid] | 2300
O=C(O)c1cccc(OCC23CCC(OCc4c(-c5c(Cl)cncc5Cl)noc4C4CC4)(CC2)CC3)n1 [Example 113, 6-((4-((5-cyclopropyl-3-(3,5-dichloropyridin-4-yl)isoxazol-4-yl)methoxy)bicyclo[2.2.2]octan-1-yl)methoxy)picolinic acid] | 92
O=C(O)c1cc(C(F)(F)F)c2cc(OCC34CCC(/C=C/c5c(-c6c(Cl)cncc6Cl)noc5C5CC5)(CC3)CC4)ccc2n1 [Example 452, (E)-6-((4-(2-(5-cyclopropyl-3-(3,5-dichloropyridin-4-yl)isoxazol-4-yl)vinyl)bicyclo[2.2.2]octan-1-yl)methoxy)-4-(trifluoromethyl)quinoline-2-carboxylic acid] | 14
O=C(O)c1ccc2cc(OCC34CCC(OCc5c(-c6c(Cl)cncc6Cl)noc5C5CC5)(CC3)CC4)ccc2n1 [Example 115, 6-((4-((5-cyclopropyl-3-(3,5-dichloropyridin-4-yl)isoxazol-4-yl)methoxy)bicyclo[2.2.2]octan-1-yl)methoxy)quinoline-2-carboxylic acid] | 52
O=C(O)c1cc(-c2nc(C34CCC(OCc5c(-c6c(Cl)cccc6Cl)noc5C5CC5)(CC3)CC4)no2)ccn1 [Example 22, 4-(3-(4-((5-cyclopropyl-3-(2,6-dichlorophenyl)isoxazol-4-yl)methoxy)bicyclo[2.2.2]octan-1-yl)-1,2,4-oxadiazol-5-yl)picolinic acid] | 210
O=C(O)c1cccc(-c2noc(C34CCC(/C=C/c5c(-c6c(Cl)cncc6Cl)noc5C5CC5)(CC3)OC4)n2)c1 [Example 495, (E)-3-(5-(1-(2-(5-cyclopropyl-3-(3,5-dichloropyridin-4-yl)isoxazol-4-yl)vinyl)-2-oxabicyclo[2.2.2]octan-4-yl)-1,2,4-oxadiazol-3-yl)benzoic acid] | 1700
O=C(O)c1cnc(OCC23CCC(OCc4c(-c5c(Cl)cncc5Cl)noc4C4CC4)(CC2)CC3)c(F)c1 [Example 118, 6-((4-((5-cyclopropyl-3-(3,5-dichloropyridin-4-yl)isoxazol-4-yl)methoxy)bicyclo[2.2.2]octan-1-yl)methoxy)-5-fluoronicotinic acid] | 33
COC(=O)c1ccc(NC(=S)C23CCC(COCc4c(-c5c(Cl)cccc5Cl)noc4C4CC4)(CC2)CC3)c(Cl)c1 [Intermediate 168A, methyl 3-chloro-4-(4-(((5-cyclopropyl-3-(2,6-dichlorophenyl)isoxazol-4-yl)methoxy)methyl)bicyclo[2.2.2]octane-1-carbothioamido)benzoate] | 4380
CC(C)Oc1cc(C(=O)O)nc2ccc(OCC34CCC(/C=C/c5c(-c6c(Cl)cncc6Cl)noc5C5CC5)(CC3)CO4)cc12 [Example 501, (E)-6-((4-(2-(5-cyclopropyl-3-(3,5-dichloropyridin-4-yl)isoxazol-4-yl)vinyl)-2-oxabicyclo[2.2.2]octan-1-yl)methoxy)-4-isopropoxyquinoline-2-carboxylic acid] | 54
O=C(O)c1ccc(-c2noc(C34CCC(/C=C\c5c(-c6c(Cl)cccc6Cl)noc5C5CC5)(CC3)CC4)n2)cc1 [Example 164] | 1600
O=C(O)c1ncc(OCC23CCC(OCc4c(-c5c(Cl)cncc5Cl)noc4C4CC4)(CC2)CC3)cc1OC1CC1 [Example 340] | 46
CCOc1cc(C(=O)O)nc2ccc(OCC34CCC(OCc5c(-c6c(Cl)cncc6Cl)noc5C5CC5)(CC3)CC4)cc12 [Example 345] | 14
COc1cc(OCC23CCC(/C=C/c4c(-c5c(Cl)cncc5Cl)noc4C4CC4)(CC2)CO3)cc(C(=O)O)c1 [Example 470, (E)-3-((4-(2-(5-cyclopropyl-3-(3,5-dichloropyridin-4-yl)isoxazol-4-yl)vinyl)-2-oxabicyclo[2.2.2]octan-1-yl)methoxy)-5-methoxybenzoic acid] | 110
O=C(O)c1ccc2nc(C34CCC(/C=C\c5c(-c6c(Cl)cccc6Cl)noc5C5CC5)(CC3)CC4)sc2c1 [Example 181, (Z)-2-(4-(2-(5-cyclopropyl-3-(2,6-dichlorophenyl)isoxazol-4-yl)vinyl)bicyclo[2.2.2]octan-1-yl)benzo[d]thiazole-6-carboxylic acid] | 780
O=C(O)c1ccccc1CNC(=O)C12CCC(OCc3c(-c4c(Cl)cccc4Cl)noc3C3CC3)(CC1)CC2 [Example 142, 2-((4-((5-cyclopropyl-3-(2,6-dichlorophenyl)isoxazol-4-yl)methoxy)bicyclo[2.2.2]octane-1-carboxamido)methyl)benzoic acid] | 1300
O=C(O)c1cccc(-c2nnc(C34CCC(OCc5c(-c6ccccc6OC(F)(F)F)noc5C5CC5)(CC3)CC4)s2)c1 [Example 19, 3-(5-(4-((5-cyclopropyl-3-(2-(trifluoromethoxy)phenyl)isoxazol-4-yl)methoxy)bicyclo[2.2.2]octan-1-yl)-1,3,4-thiadiazol-2-yl)benzoic acid] | 1700

Compound | EC50 [nM]
O=C(O)c1cccc2nc(C34CCC(C=Cc5c(-c6c(Cl)cccc6Cl)noc5C5CC5)(CC3)CC4)sc12 [Example 189] | 63
CC1(c2noc(C3CC3)c2COC23CCC(c4ccc5c(C(=O)O)cccc5n4)(CC2)CC3)CC1(F)F (stereo not shown) [Example 425, 2-(4-((5-cyclopropyl-3-(2,2-difluoro-1-methylcyclopropyl)isoxazol-4-yl)methoxy)bicyclo[2.2.2]octan-1-yl)quinoline-5-carboxylic acid] | 3400
O=C(O)c1cc(F)c2nc(OCC34CCC(C=Cc5c(-c6c(Cl)cccc6Cl)noc5C5CC5)(CC3)CC4)sc2c1 [Example 191] | 58
O=C(O)c1cccc(OCC23CCC(OCc4c(-c5c(Cl)cncc5Cl)noc4C4CC4)(CC2)CC3)c1 [Example 91, 3-((4-((5-cyclopropyl-3-(3,5-dichloropyridin-4-yl)isoxazol-4-yl)methoxy)bicyclo[2.2.2]octan-1-yl)methoxy) benzoic acid] | 33
COc1cc(OCC23CCC(OCc4c(-c5c(Cl)cncc5Cl)noc4C4CC4)(CC2)CC3)nc(C(=O)O)c1 [Example 323] | 74
O=C(O)C1(c2noc(C34CCC(OCc5c(-c6c(Cl)cncc6Cl)noc5C5CC5)(CC3)CC4)n2)CC1 [Example 271, 1-(5-(4-((5-cyclopropyl-3-(3,5-dichloropyridin-4-yl)isoxazol-4-yl)methoxy)bicyclo[2.2.2]octan-1-yl)-1,2,4-oxadiazol-3-yl)cyclopropane-1-carboxylic acid] | 1100
O=C(O)c1cc(-c2nc(C34CCC(OCc5c(-c6ccccc6C(F)(F)F)noc5C5CC5)(CC3)CC4)no2)ccn1 [Example 59] | 3800
O=C(O)c1cc2ccc(OCC34CCC(OCc5c(-c6c(Cl)cncc6Cl)noc5C5CC5)(CC3)CC4)cc2cn1 [Example 287] | 96
CC(C)(C(N)=O)c1ccc(C23CCC(/C=C/c4c(-c5c(Cl)cncc5Cl)noc4C4CC4)(CC2)CO3)cc1 [Example 481, (E)-2-(4-(4-(2-(5-cyclopropyl-3-(3,5-dichloropyridin-4-yl)isoxazol-4-yl)vinyl)-2-oxabicyclo[2.2.2]octan-1-yl)phenyl)-2-methylpropanamide] | 510
O=C(O)c1cc(F)c2nc(C34CCC(OCc5c(-c6c(Cl)cccc6Cl)noc5C5CC5)(CC3)CC4)sc2c1 [Example 16, 2-(4-((5-cyclopropyl-3-(2,6-dichlorophenyl)isoxazol-4-yl)methoxy)bicyclo[2.2.2]octan-1-yl)-4-fluorobenzo[d]thiazole-6-carboxylic acid] | 36
COc1ccc(-c2noc(C34CCC(OCc5c(-c6c(Cl)cncc6Cl)noc5C5CC5)(CC3)CC4)n2)cc1C(N)=O [Example 240, 5-(5-(4-((5-cyclopropyl-3-(3,5-dichloropyridin-4-yl)isoxazol-4-yl)methoxy)bicyclo[2.2.2]octan-1-yl)-1,2,4-oxadiazol-3-yl)-2-methoxybenzamide] | 170
O=C(O)c1cc(C(F)(F)F)cc(C23CCC(COCc4c(-c5c(Cl)cncc5Cl)noc4C4CC4)(CC2)CO3)c1 [Example 490, 3-(4-(((5-cyclopropyl-3-(3,5-dichloropyridin-4-yl)isoxazol-4-yl)methoxy)methyl)-2-oxabicyclo[2.2.2]octan-1-yl)-5-(trifluoromethyl)benzoic acid] | 96
O=C(O)c1cc(C(F)(F)F)c2nccc(C34CCC(OCc5c(-c6c(Cl)cncc6Cl)noc5C5CC5)(CC3)CC4)c2c1 [Example 372] | 570
O=C(O)c1cccc(-c2noc(C34CC(COCc5c(-c6c(Cl)cccc6Cl)noc5C5CC5)(C3)C4)n2)c1 [Example 514, 3-(5-(3-(((5-cyclopropyl-3-(2,6-dichlorophenyl)isoxazol-4-yl)methoxy)methyl)bicyclo[1.1.1]pentan-1-yl)-1,2,4-oxadiazol-3-yl)benzoic acid] | 1700
O=C(O)c1cc(-c2nc(C34CCC(OCc5c(-c6ccccc6OC(F)(F)F)noc5C5CC5)(CC3)CC4)no2)ccn1 [Example 58] | 4000
Clc1cccc(Cl)c1-c1noc(C2CC2)c1COC12CCC(c3nc(-c4nn[nH]n4)no3)(CC1)CC2 [Example 267, 5-(4-((5-cyclopropyl-3-(2,6-dichlorophenyl)isoxazol-4-yl)methoxy)bicyclo[2.2.2]octan-1-yl)-3-(2H-tetrazol-5-yl)-1,2,4-oxadiazole] | 4400
O=C(O)c1ccc2cc(C#CC34CCC(OCc5c(-c6c(Cl)cncc6Cl)noc5C5CC5)(CC3)CC4)ccc2n1 [Example 382] | 62

Source: patent publication US10730863B2, “Bridged bicyclic compounds as farnesoid X receptor modulators” (BRISTOL-MYERS SQUIBB COMPANY, priority 2017, dated 2020)
